From paper PMC3545186 (Biochemical Pharmacology, 2013)
Several values for one entry are separate records, joined by “and”; a condition that tells them apart may be missing. Identical values can stand only once. Numbered stars: 1 amine (or outer) side, 2 acyl side, 3 side chain; on linkers, the order of the positions; unused ones are H or OH. Bridge positions count the residues as written; N and C are the ends. Square brackets hold non-standard residues; d marks the D form. Peptide text beside a SMILES is read from it. I, II: the chains in the order shown. Actinocin(9to1) = Cc1c2oc3c(C)ccc(C(=O)[*:1])c3nc-2c(C(=O)[*:2])c(N)c1=O; NMeV = CN[C@H](C(=O)O)C(C)C; Sar = CNCC(=O)O

Columns and labels:
MDCKII-ABCG2 cells [1] = assay: Cellular efflux of Act D after 4 h uptake; format: in vitro ADME, canine; settings: MDCKII-ABCG2, not statistically significant
MDCKII-WT cells [2] = assay: Fluorescence competition assay with ABCB1 substrate doxorubicin; format: cell-based, canine; settings: 1 h pre-incubation, doxorubicin 10 μM 1 h
[3] = Act D treatment; cited from earlier work
MDCKII-ABCC1 cells [4] = assay: Intracellular accumulation of Act D; format: in vitro ADME, canine
MDCKII-WT cells [5] = assay: Growth inhibition; format: cell-based, canine
MDCKII-ABCG2 cells [6] = assay: Intracellular accumulation of Act D; format: in vitro ADME, canine
MDCKII-ABCB1 cells [7] = assay: Fluorescence competition assay with ABCB1 substrate doxorubicin; format: cell-based, canine; settings: MDCKII-ABCB1, 1 h pre-incubation, doxorubicin 10 μM 1 h
MDCKII-ABCC2 cells [8] = assay: Cellular efflux of Act D after 4 h uptake; format: in vitro ADME, canine
ABCB1 (MDR1) = assay: Growth inhibition; settings: dog, 72 h
MDCKII-ABCB1 cells [9] = assay: Growth inhibition
MDCKII-ABCC1 cells [10] = assay: Cellular efflux of Act D after 4 h uptake; format: in vitro ADME, canine; settings: MDCKII-ABCC1, after 4 h with 0.1 μM Act D
MDCKII-ABCC2 cells [11] = assay: Growth inhibition; format: cell-based, canine; settings: MDCKII-ABCC2, MK571 25 μM, p = 0.23
in vivo = format: in vivo, mice; settings: for Cmax / Tmax / half-life: mouse, in vivo, iv
MDCKII-ABCB1 cells [12] = assay: Intracellular accumulation of Act D; format: in vitro ADME, canine
[13] = paediatric patient population; cited from earlier work
MDCKII-WT cells [14] = assay: Intracellular accumulation of Act D; format: in vitro ADME, canine; settings: 0.01 μM Act D, 12 h
MDCKII-ABCC1 cells [15] = assay: Growth inhibition; format: cell-based, canine; settings: MDCKII-ABCC1, MK571 25 μM
[16] = format: in vivo, mice; settings: 0.5 mg/kg i.v.
[17] = Abcb1a/1b−/− knockout (parental strain FVB), 0.5 mg/kg
[18] = Abcc2−/− knockout (parental strain FVB), 0.5 mg/kg
[19] = Abcc2−/− mice, 0.5 mg/kg i.v., 0.5 mg/kg
[20] = WT mice, 0.5 mg/kg i.v., 0.5 mg/kg

higher intracellular Act D after 2 h (MDCKII-ABCG2 cells [1]): 1.5 fold
increased accumulation with MK571 compared to absence of inhibitor (MDCKII-ABCC1 cells [4]; MDCKII-ABCC1, not statistically significant): 1.2 fold
lower accumulation of Act D compared to parental cell line (MDCKII-ABCC1 cells [4]; MDCKII-ABCC1 vs MDCKII-WT, 12 h): 2.5 fold and 2.45 fold
Act D accumulation compared to WT cells (MDCKII-ABCG2 cells [6]; MDCKII-ABCG2): not different to WT cells
effect of co-incubation with KO143 on Act D accumulation (MDCKII-ABCG2 cells [6]; MDCKII-ABCG2, data not shown): no effect
reduction in intracellular Act D over 2 h after drug removal (MDCKII-ABCC2 cells [8]; MDCKII-ABCC2, after 4 h with 0.1 μM Act D): 2.1 fold
reduction in intracellular Act D over 1 h after drug removal (MDCKII-ABCC2 cells [8]; MDCKII-ABCC2, compared to parental cell line): 1.8 fold
reduction in intracellular Act D over 2 h after drug removal (MDCKII-ABCC1 cells [10]): 1.9 fold
greater plasma AUC0–∞ in Abcb1a/1b−/− mice compared to WT (in vivo; 0.5 mg/kg i.v.): 1.9 fold
higher plasma AUC0–6 h in Abcb1a/1b−/− mice compared to WT (in vivo; 0.5 mg/kg i.v.): 1.6 fold
higher plasma Cmax at 15 min in Abcb1a/1b−/− mice compared to WT (in vivo; 0.5 mg/kg i.v.): 1.4 fold
higher plasma concentration at 30 min in Abcb1a/1b−/− mice compared to WT (in vivo; 0.5 mg/kg i.v.): 1.7 fold
longer elimination half-life (t1/2) in Abcb1a/1b−/− mice compared to WT (in vivo; 0.5 mg/kg i.v.): 1.5 fold
Cmax (in vivo; [17]): 96.7 ± 12 ng/mL
Tmax (in vivo; [17]): 15 min
half-life (in vivo; [17]): 167 min
plasma AUC0–∞ (in vivo; Abcb1a/1b−/− mice, 0.5 mg/kg i.v., 0.5 mg/kg): 322.6 µg·h/L
Act D plasma concentration (in vivo; Abcb1a/1b−/− mice, 0.25 h, 0.5 mg/kg i.v.): 96.7 ± 12.0 µg/L
Act D plasma concentration (in vivo; Abcb1a/1b−/− mice, 0.5 h, 0.5 mg/kg i.v., 0.5 mg/kg): 71.6 µg/L and 71.6 ± 12.3 µg/L
Act D plasma concentration (in vivo; Abcb1a/1b−/− mice, 2 h, 0.5 mg/kg i.v.): 35.8 ± 2.01 µg/L
Act D plasma concentration (in vivo; Abcb1a/1b−/− mice, 6 h, 0.5 mg/kg i.v.): 20.1 ± 0.78 µg/L
half-life (in vivo; Abcc2−/− knockout (FVB background), 0.5 mg/kg): 148 min
Cmax (in vivo; [18]): 48 ± 11.1 ng/mL
Tmax (in vivo; [18]): 15 min
plasma AUC0–6 h (in vivo; [19]): 114.8 µg·h/L
plasma AUC0–∞ (in vivo; [19]): 145.2 µg·h/L
Act D plasma concentration (in vivo; Abcc2−/− mice, 0.25 h, 0.5 mg/kg i.v.): 48.0 ± 11.1 µg/L
Act D plasma concentration (in vivo; Abcc2−/− mice, 0.5 h, 0.5 mg/kg i.v.): 37.7 ± 6.07 µg/L
Act D plasma concentration (in vivo; Abcc2−/− mice, 2 h, 0.5 mg/kg i.v.): 16.3 ± 3.73 µg/L
Act D plasma concentration (in vivo; Abcc2−/− mice, 6 h, 0.5 mg/kg i.v.): 8.6 ± 0.96 µg/L
Cmax (in vivo; FVB (wild type), 0.5 mg/kg): 68.6 ± 15.6 ng/mL
Tmax (in vivo; FVB (wild type), 0.5 mg/kg): 15 min
half-life (in vivo; FVB (wild type), 0.5 mg/kg): 115 min
plasma AUC0–6 h (in vivo; [20]): 151.5 µg·h/L
plasma AUC0–∞ (in vivo; [20]): 168.1 µg·h/L
Act D plasma concentration (in vivo; WT mice, 0.25 h, 0.5 mg/kg i.v.): 68.6 ± 15.6 µg/L
Act D plasma concentration (in vivo; WT mice, 0.5 h, 0.5 mg/kg i.v., 0.5 mg/kg): 43.3 µg/L and 43.3 ± 7.68 µg/L
Act D plasma concentration (in vivo; WT mice, 2 h, 0.5 mg/kg i.v.): 25.8 ± 4.78 µg/L
Act D plasma concentration (in vivo; WT mice, 6 h, 0.5 mg/kg i.v.): 6.0 ± 0.65 µg/L
intracellular accumulation of Act D (MDCKII-ABCB1 cells [12]; MDCKII-ABCB1, 0.01 μM Act D, 12 h): 0.1 nM
increase in intracellular Act D with verapamil (MDCKII-ABCB1 cells [12]; MDCKII-ABCB1, 10 μM verapamil, 0.1 μM Act D, 4 h): 7.9 fold
lower accumulation of Act D compared to parental cell line (MDCKII-ABCB1 cells [12]; MDCKII-ABCB1 vs MDCKII-WT, 0.01 μM Act D, 12 h): 9.8 fold
intracellular accumulation of Act D (MDCKII-WT cells [14]): 0.98 nM
higher brain AUC0–6 h in Abcb1a/1b−/− mice compared to WT [16]: 2.3 fold
higher brain AUC0–6 h in Abcc2−/− mice compared to WT [16]: 1.3 fold
Brain AUC0–6 h (peak area) ([16]; Abcb1a/1b−/− mice): 6802 pa/g h
Brain Cmax (peak area) ([16]; Abcb1a/1b−/− mice): 1420 ± 521 pa
SMILES: Cc1c2oc3c(C)ccc(C(=O)N[C@@H]4C(=O)N[C@H](C(C)C)C(=O)N5CCC[C@H]5C(=O)N(C)CC(=O)N(C)[C@@H](C(C)C)C(=O)O[C@@H]4C)c3nc-2c(C(=O)N[C@@H]2C(=O)N[C@H](C(C)C)C(=O)N3CCC[C@H]3C(=O)N(C)CC(=O)N(C)[C@@H](C(C)C)C(=O)O[C@@H]2C)c(N)c1=O [Act D, actinomycin D] (I: T[dV]P[Sar][NMeV] / II: T[dV]P[Sar][NMeV]; ester I:1-I:C, II:1-II:C; linker I:N-II:N via Actinocin(9to1))
Act D concentration at which intracellular doxorubicin levels plateaued (MDCKII-WT cells [2]): 0.1 to 1 µM
incidence of liver toxicities [3]: 1.7–13.5 % of cases
increase in sensitivity to Act D with MK571 (MDCKII-WT cells [5]; MK571 25 μM): 3 fold
reduction in GI50 with verapamil (MDCKII-WT cells [5]; verapamil 1 μM, 72 h): 3 fold
Act D concentration required to maximally inhibit doxorubicin efflux (MDCKII-ABCB1 cells [7]): 1 to 25 µM
GI50 at 72 h (ABCB1 (MDR1); GI50, MDCKII-ABCB1, + verapamil (1 μM)): 129 nM
GI50 at 72 h (ABCB1 (MDR1); GI50, MDCKII-ABCB1, Act D alone): 745 nM
decrease in GI50 with verapamil (MDCKII-ABCB1 cells [9]; MDCKII-ABCB1, verapamil 1 μM, 72 h): 6 fold
difference in GI50 between MDCKII-WT and MDCKII-ABCB1 (MDCKII-ABCB1 cells [9]; MDCKII-ABCB1 less sensitive than parental): 59 fold
effect of MK571 on sensitivity to Act D (MDCKII-ABCC2 cells [11]): no effect
range in AUC0–6 h between patients [13]: > 4 fold
increase in sensitivity to Act D with MK571 (MDCKII-ABCC1 cells [15]): greater than 4 fold
